Patent US12054478B2, “Compositions and methods for inhibiting phenyl triazole MLL1-WDR5 protein-protein interaction” (China Pharmaceutical University, priority 2018, dated 2024)

How the values were obtained:
[1] = system: Molm-13 human acute myeloid leukemia cells; assay: Anti-proliferation on leukemia cells, Molm-13; assay type: cell-based; conditions: Molm-13 cells
Procedure: (§1) Anti-proliferation experiments were conducted with leukemia cells with some of the compounds in the present disclosure.

female balb/c mice = conditions: 80 mg/kg intraperitoneal, 10 consecutive days
Procedure: In the meantime, subacute toxicity experiments were conducted to evaluate the safety of some of the compounds in the present disclosure in mouse.

[2] = system: MV4-11 human acute leukemia monocyte; assay: Anti-proliferation on leukemia cells, MV4-11; assay type: cell-based; conditions: MV-411 cells
Procedure: as §1

[3] = molecular target: MLL1-WDR5 protein-protein interactions (Homo sapiens, UniProt P61964); assay: Inhibition of MLL1-WDR5 protein-protein interaction; assay type: binding; conditions: Table 1; read-out: MLL1-WDR5 PPI inhibition activity
[4] = system: K562 human chronic myeloid leukemia cells; assay: Anti-proliferation on leukemia cells, K562; assay type: cell-based
Procedure: Anti-proliferation experiments were conducted with leukemia cells with some of the compounds in the present disclosure. Table 3 listed the results of evaluation of the anti-proliferation activities for some of the compounds from this present disclosure conducted with acute leukemia cells, wherein MV4-11 is human acute leukemia monocyte, Molm-13 is human acute myeloid leukemia cells, and K562 is human chronic myeloid leukemia cells.

[5] = system: Hox and Meis-1 gene expression; assay: RT-PCR at cellular level, Hox and Meis-1 gene expression; assay type: cell-based; conditions: Yes/No
[6] = system: H3K4 acetylation level (MLL1 catalytic activity in cells); assay: Western-blot at cellular level, H3K4 acetylation (H3K4me1/2/3) levels; assay type: cell-based; conditions: Yes/No
Procedure: In addition, Western-blot experiments at cellular level were conducted with some of the compounds in the present disclosure, with results listed in Table 1 on whether some of the compounds in the present disclosure inhibited H3K4 acetylation levels.
The inhibition on MLL1 catalytic activities at the cellular level for some of the compounds was plotted in FIG. 2.

Row | GI50 [1] | GI50 [2] | Compound | GI50 ([1]; Homo sapiens) | Average body weight changes (female balb/c mice) | GI50 ([2]; Homo sapiens, MV4-11) | IC50 [3] | GI50 [4] | Downregulation of Hox and Meis-1 expression [5] | Inhibition on H3K4 acetylation level [6]
1 | – | – | Cc1c(F)c(N)cc(C(=O)Nc2c(N3CCN(C)CC3)ccc(-n3cc(C(=O)NCCN4CCOCC4)nn3)c2C)c1Cl [Example 22, 1-(3-(5-amino-2-chloro-4-fluoro-3-Methylbenzoylamino)-2-methyl-4-(4-methylpiperazin-1-group)phenyl)-N-(2-Morpholineethyl)-1H-1,2,3-triazol-4-formamide] | 11.2 ± 0.8 µM | slight body weight increase | 9.5 ± 0.4 µM | < 0.01 µM | 10.9 ± 0.7 µM | – | –
2 | – | – | COC(=O)c1cn(-c2ccc(N3CCN(C)CC3)c(NC(=O)c3cc(N)c(F)c(C)c3Cl)c2)nn1 [Example 1, 1-(3-(5-amino-2-chloro-4-fluoro-3-methylbenzoylamino)-4-(4-methylpiperazine-1-group)phenyl)-1H-1,2,3-methyl triazole-4-carboxylate] | – | – | – | – | – | Yes | Yes
3 | – | – | Cc1c(F)c(N)cc(C(=O)Nc2cc(-n3cc(C(=O)NCCCN4CCOCC4)nn3)ccc2N2CCN(C)CC2)c1Cl [Example 7] | – | slight body weight increase | – | – | 12.9 ± 0.4 µM | – | –
4 | – | – | Cc1c(F)c(N)cc(C(=O)Nc2cc(-n3cc(NC(=O)CCCN)nn3)ccc2N2CCN(C)CC2)c1Cl [Example 16, 5-amino-N-(5-(4-(4-Aminobutyrylamino)-1H-1,2,3-triazol-1-group)-2-(4-methylpiperazin-1-group)phenyl)-2-chloro-4-fluoro-3-methyl benzoylamino] | – | slight body weight increase | 15.1 ± 0.9 µM | < 0.01 µM | 15 ± 0.8 µM | – | –
5 | 15.4 ± 2.2 µM | 11.2 ± 1.3 µM | 5-amino-2-chloro-N-(5-(4-(4-(dimethylaminomethyl)benzyl)-1H-1,2,3-triazol-1-group)-2-(4-methylpiperazin-1-group group)phenyl)-4-fluoro-3-Methyl benzoyl [Example 18] | – | – | – | < 0.05 µM | – | Yes | Yes
6 | – | – | Cc1c(F)c(N)cc(C(=O)Nc2cc(-c3ccc(N)cc3)ccc2N2CCN(C)CC2)c1Cl [DDO-2084, reference compound] | – | – | 17.7 ± 2.3 µM | 0.0887 ± 0.0049 µM | 50.5 ± 5.5 µM | Yes | Yes
7 | – | – | Cc1c(F)c(N)cc(C(=O)Nc2cc(-n3cc(C(=O)N4CCOCC4)nn3)ccc2N2CCN(C)CC2)c1Cl [Example 4] | – | slight body weight increase | – | – | 34.4 ± 0.9 µM | Yes | Yes
